These compounds were tested against T1, hTRPA1 (Homo sapiens, UniProt O75762, K186N) (assay: High throughput Ca2+ fluorescence (Fluo4) assay, AITC stimulation). Details: Table 2; read-out: hTRPA1 Fluor IC50.
T1 construct: expressed in transfected cells; host or cells: HEK293/TREx (Invitrogen), induced with tetracycline
Type: cell-based
Description: The assay depended on detection of the rise in intracellular Ca^2+ concentration ([Ca^2+]i) following channel activation in cells inducibly expressing the TRPA1 channel. Ca^2+ rise was quantified with the use of fluorescent Ca^2+ indicators that were loaded into cells and thereafter indicated the [Ca^2+]i. Ca^2+ influx followed activation of the TRPA1 channel. Compounds inhibiting the [Ca^2+]i rise were considered hits for further investigation.
These cells were maintained in the growth medium recommended by the manufacturer supplemented with 100 μg/ml hygromycin to promote retention of the TRPA1 construct. After growing to near confluency, cells were plated at a density of ˜25,000 cells/well in 384 well CellBind plates (Corning) in the presence of 1 μg/ml tetracycline, and allowed to grow for 20-30 hrs. A nearly confluent monolayer resulted. Cells were then loaded with Ca^2+ dye: Fura-2/AM or Fluo4/AM was added to the wells to a final concentration of 2 μM or 1 μM, respectively, and incubated for 80 min or 60 min, respectively, at room temperature. […] Frames were acquired at a rate of 0.2 Hz. During the assay, the plates were continuously […], with pipette mixing of wells following addition of each reagent. For the screening assay, 13 μl of a diluted stock (at 50 μM) was added to each well for 2 minutes following the collection of a short (4 frame) baseline. […] Data was collected for ˜3 minutes following addition of AITC, where the fluorescent intensity (for Fluo4) and the F340/F380 ratio (for Fura-2) were proportional to the [Ca^2+]i. Negative controls consisted of HEK293/TREx TRPA1 cells exposed to AITC, but no compound. […] These controls defined a screening window, and “hits” were defined as those compounds inhibiting the fluorescence response by at least 40%. IC50 values were determined for compounds defined as “hits.” The Fluo4 cell-based fluorescence assay was used to determine the intracellular Ca^2+ concentration in the presence of varying drug concentration. […] Compounds were tested in triplicate at all concentrations. Standard software was used to fit IC50 curves.

T1 sequence (O75762 whole entry K186N): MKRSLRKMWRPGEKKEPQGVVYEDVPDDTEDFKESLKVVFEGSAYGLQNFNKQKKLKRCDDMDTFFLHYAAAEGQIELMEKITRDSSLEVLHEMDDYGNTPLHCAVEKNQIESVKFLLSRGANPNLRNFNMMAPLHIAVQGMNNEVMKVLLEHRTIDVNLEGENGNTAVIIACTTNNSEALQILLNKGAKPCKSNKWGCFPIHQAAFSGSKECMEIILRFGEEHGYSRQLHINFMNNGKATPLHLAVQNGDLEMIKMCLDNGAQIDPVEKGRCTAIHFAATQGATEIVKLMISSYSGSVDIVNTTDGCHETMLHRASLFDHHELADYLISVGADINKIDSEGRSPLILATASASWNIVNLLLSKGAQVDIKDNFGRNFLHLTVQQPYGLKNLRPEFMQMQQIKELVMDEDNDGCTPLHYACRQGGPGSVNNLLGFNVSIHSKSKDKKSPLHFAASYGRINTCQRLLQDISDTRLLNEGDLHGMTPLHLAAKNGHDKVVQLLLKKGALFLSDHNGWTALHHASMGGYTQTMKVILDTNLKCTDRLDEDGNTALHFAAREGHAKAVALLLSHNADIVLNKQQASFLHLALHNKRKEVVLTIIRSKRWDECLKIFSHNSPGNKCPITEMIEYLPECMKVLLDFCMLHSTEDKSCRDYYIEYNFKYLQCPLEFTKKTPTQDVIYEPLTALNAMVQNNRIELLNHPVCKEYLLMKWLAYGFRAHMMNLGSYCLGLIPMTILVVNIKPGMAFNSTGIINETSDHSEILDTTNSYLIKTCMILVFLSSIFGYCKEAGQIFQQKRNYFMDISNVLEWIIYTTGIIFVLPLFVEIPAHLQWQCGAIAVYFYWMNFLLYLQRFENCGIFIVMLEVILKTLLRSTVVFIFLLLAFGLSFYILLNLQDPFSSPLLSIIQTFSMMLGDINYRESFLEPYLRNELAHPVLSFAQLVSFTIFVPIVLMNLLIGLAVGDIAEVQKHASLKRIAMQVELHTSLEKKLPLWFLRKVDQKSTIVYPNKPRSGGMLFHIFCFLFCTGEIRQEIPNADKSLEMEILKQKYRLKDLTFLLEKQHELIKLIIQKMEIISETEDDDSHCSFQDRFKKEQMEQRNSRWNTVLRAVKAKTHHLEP

`Cn1c(=O)c2c(ncn2CC(=O)NCc2ccccn2)n(C)c1=O` [Compound 243] and `Cn1c(=O)c2c(ncn2CC(=O)NCc2cccc(Cl)c2)n(C)c1=O` [Compound 286] cannot be ordered by IC50: greater than 10 µM for the first, greater than 10 µM for the second.

`Cn1c(=O)c2c(ncn2CC(=O)Nc2ccc(F)c(F)c2)n(C)c1=O` [Compound 245] and `Cc1ccc(NC(=O)Cn2cnc3c2c(=O)n(C)c(=O)n3C)cc1F` [Compound 306] cannot be ordered by IC50: no more than 10 µM for the first, greater than 10 µM for the second.

`Cn1c(=O)c2c(ncn2CC(=O)Nc2ccc3c(c2)OCCO3)n(C)c1=O` [Compound 246] and `Cn1c(=O)c2c(ncn2CC(=O)Nc2ccc3c(c2)OCCCO3)n(C)c1=O` [Compound 326] cannot be ordered by IC50: greater than 10 µM for the first, no more than 10 µM for the second.

First: Cn1c(=O)c2c(ncn2CC(=O)Nc2ccc(N3CCOCC3)cc2)n(C)c1=O [Compound 247]
Second: Cn1c(=O)c2c(ncn2CC(=O)Nc2ccccc2N2CCOCC2)n(C)c1=O [Compound 248]
The IC50 of the first is lower: no more than 5 µM for the first, greater than 10 µM for the second. The first is the more potent here.

`COc1ccc(Nc2ccc(NC(=O)Cn3cnc4c3c(=O)n(C)c(=O)n4C)cc2)cc1` [Compound 249] and `Cc1ccc(NC(=O)Cn2cnc3c2c(=O)n(C)c(=O)n3C)cc1` [Compound 259] cannot be ordered by IC50: no less than 20 µM for the first, greater than 10 µM for the second.

`COc1cc2c(cc1NC(=O)Cn1cnc3c1c(=O)n(C)c(=O)n3C)oc1ccccc12` [Compound 253] and `CCn1c2ccccc2c2cc(NC(=O)Cn3cnc4c3c(=O)n(C)c(=O)n4C)ccc21` [Compound 254] cannot be ordered by IC50: greater than 10 µM for the first, greater than 10 µM for the second.

`Cc1cc(NC(=O)Cn2cnc3c2c(=O)n(C)c(=O)n3C)n(-c2ccccc2)n1` [Compound 255] and `CSc1ccccc1NC(=O)Cn1cnc2c1c(=O)n(C)c(=O)n2C` [Compound 316] cannot be ordered by IC50: no less than 20 µM for the first, greater than 10 µM for the second.

`Cn1c(=O)c2c(ncn2CC(=O)NCCOC(=O)c2ccc(Cl)cc2)n(C)c1=O` [Compound 256] and `Cn1c(=O)c2c(ncn2CC(=O)NCCOc2ccc(C(C)(C)C)cc2)n(C)c1=O` [Compound 320] cannot be ordered by IC50: greater than 10 µM for the first, no more than 10 µM for the second.

`Cn1c(=O)c2c(ncn2CC(=O)Nc2ccccc2Cc2ccccc2)n(C)c1=O` [Compound 258] and `Cn1c(=O)c2c(ncn2CC(=O)Nc2ccccc2-c2nc3ccccc3[nH]2)n(C)c1=O` [Compound 260] cannot be ordered by IC50: greater than 10 µM for the first, greater than 10 µM for the second.

`Cc1ccc(NC(=O)Cn2cnc3c2c(=O)n(C)c(=O)n3C)c(Cl)c1` [Compound 263] and `Cc1ccc(NC(=O)Cn2cnc3c2c(=O)n(C)c(=O)n3C)c(Br)c1` [Compound 265] cannot be ordered by IC50: greater than 10 µM for the first, no less than 20 µM for the second.

`Cc1ccc(-c2csc(NC(=O)Cn3cnc4c3c(=O)n(C)c(=O)n4C)n2)cc1C` [Compound 270] and `Cc1cc(C)c(-c2csc(NC(=O)Cn3cnc4c3c(=O)n(C)c(=O)n4C)n2)c(C)c1` [Compound 272] cannot be ordered by IC50: greater than 10 µM for the first, greater than 10 µM for the second.

`CC(C)N(c1ccccc1)c1ccc(NC(=O)Cn2cnc3c2c(=O)n(C)c(=O)n3C)cc1` [Compound 273] and `CC(C)N(C(=O)Cn1cnc2c1c(=O)n(C)c(=O)n2C)c1ccccc1` [Compound 336] cannot be ordered by IC50: no more than 10 µM for the first, greater than 10 µM for the second.

`Cn1c(=O)c2c(ncn2CC(=O)NCc2cccc(C(F)(F)F)c2)n(C)c1=O` [Compound 275] and `CC(C(=O)Nc1cccc(C(F)(F)F)c1)n1cnc2c1c(=O)n(C)c(=O)n2C` (stereo not shown) [Compound 318] cannot be ordered by IC50: greater than 10 µM for the first, greater than 10 µM for the second.

`Cn1c(=O)c2c(ncn2CC(=O)Nc2ccc(F)c(F)c2F)n(C)c1=O` [Compound 276] and `CN(CC(=O)Nc1ccc(F)c(F)c1F)C(=O)Cn1cnc2c1c(=O)n(C)c(=O)n2C` [Compound 293] cannot be ordered by IC50: greater than 10 µM for the first, greater than 10 µM for the second.

`Cn1c(=O)c2c(ncn2CC(=O)NC2CCCCCCC2)n(C)c1=O` [Compound 278] and `CC1CCCCC1NC(=O)Cn1cnc2c1c(=O)n(C)c(=O)n2C` (stereo not shown) [Compound 279] cannot be ordered by IC50: greater than 10 µM for the first, greater than 10 µM for the second.

`COc1ccc(NC(=O)Cn2cnc3c2c(=O)n(C)c(=O)n3C)cc1Cl` [Compound 280] and `Cc1cc(Cl)ccc1NC(=O)Cn1cnc2c1c(=O)n(C)c(=O)n2C` [Compound 298] cannot be ordered by IC50: no more than 10 µM for the first, greater than 10 µM for the second.

`CSc1cccc(NC(=O)Cn2cnc3c2c(=O)n(C)c(=O)n3C)c1` [Compound 282] and `COC(=O)c1cccc(NC(=O)Cn2cnc3c2c(=O)n(C)c(=O)n3C)c1` [Compound 290] cannot be ordered by IC50: no more than 10 µM for the first, no more than 10 µM for the second.

Compared with `CCN(C(=O)Cn1cnc2c1c(=O)n(C)c(=O)n2C)c1ccccc1` [Compound 283], `CCN(C(=O)Cn1cnc2c1c(=O)n(C)c(=O)n2C)c1ccc(F)cc1` [Compound 291] is lower in IC50: greater than 10 µM for the first, no more than 5 µM for the second.

`Cc1sc(NC(=O)Cn2cnc3c2c(=O)n(C)c(=O)n3C)nc1-c1ccc(Cl)cc1` [Compound 287] and `Cn1c(=O)c2c(ncn2CC(=O)Nc2ccc(Cl)cc2F)n(C)c1=O` [Compound 304] cannot be ordered by IC50: no more than 10 µM for the first, no more than 5 µM for the second.

`Cn1c(=O)c2c(ncn2CC(=O)N(Cc2ccccc2)CC(F)(F)F)n(C)c1=O` [Compound 288] and `CN(CCOc1ccccc1)C(=O)Cn1cnc2c1c(=O)n(C)c(=O)n2C` [Compound 324] cannot be ordered by IC50: greater than 10 µM for the first, no less than 20 µM for the second.

`Cn1c(=O)c2c(ncn2CC(=O)NC(C)(C)C)n(C)c1=O` [Compound 289] and `CC(C)C(C)NC(=O)Cn1cnc2c1c(=O)n(C)c(=O)n2C` (stereo not shown) [Compound 332] cannot be ordered by IC50: greater than 10 µM for the first, greater than 10 µM for the second.

`Cc1ccc(NC(=O)NC(=O)Cn2cnc3c2c(=O)n(C)c(=O)n3C)c(C)c1` [Compound 292] and `Cc1cc(C)c(NC(=O)Cn2cnc3c2c(=O)n(C)c(=O)n3C)c(Cl)c1` [Compound 330] cannot be ordered by IC50: greater than 10 µM for the first, greater than 10 µM for the second.

`CC(C(=O)Nc1cccc(Cl)c1)n1cnc2c1c(=O)n(C)c(=O)n2C` (stereo not shown) [Compound 297] and `Cc1cccc(NC(=O)C(C)n2cnc3c2c(=O)n(C)c(=O)n3C)c1` (stereo not shown) [Compound 328] cannot be ordered by IC50: greater than 10 µM for the first, no less than 30 µM for the second.

`CC(C(=O)N(C)c1ccccc1)n1cnc2c1c(=O)n(C)c(=O)n2C` (stereo not shown) [Compound 301] and `CC(C(=O)Nc1ccccc1)n1cnc2c1c(=O)n(C)c(=O)n2C` (stereo not shown) [Compound 302] cannot be ordered by IC50: greater than 10 µM for the first, greater than 10 µM for the second.

`COc1ccccc1NC(=O)C(C)n1cnc2c1c(=O)n(C)c(=O)n2C` (stereo not shown) [Compound 303] and `CC(C(=O)Nc1ccccc1F)n1cnc2c1c(=O)n(C)c(=O)n2C` (stereo not shown) [Compound 334] cannot be ordered by IC50: greater than 10 µM for the first, greater than 10 µM for the second.

`Cn1c(=O)c2c(ncn2CC(=O)NCC(c2ccco2)N2CCCC2)n(C)c1=O` (stereo not shown) [Compound 308] and `Cn1c(=O)c2c(ncn2CC(=O)NCC(c2cccs2)N2CCCC2)n(C)c1=O` (stereo not shown) [Compound 312] cannot be ordered by IC50: greater than 10 µM for the first, greater than 10 µM for the second.

`CC(=O)c1ccccc1NC(=O)Cn1cnc2c1c(=O)n(C)c(=O)n2C` [Compound 309] and `Cn1c(=O)c2c(ncn2CC(=O)Nc2ccccc2C(=O)NC2CC2)n(C)c1=O` [Compound 338] cannot be ordered by IC50: greater than 10 µM for the first, greater than 10 µM for the second.

`CC(NC(=O)Cn1cnc2c1c(=O)n(C)c(=O)n2C)c1ccc2c(c1)OCCO2` (stereo not shown) [Compound 310] and `CC(C)C(NC(=O)Cn1cnc2c1c(=O)n(C)c(=O)n2C)c1ccc2c(c1)OCCCO2` (stereo not shown) [Compound 345] cannot be ordered by IC50: greater than 10 µM for the first, greater than 10 µM for the second.

`CSc1ccccc1NC(=O)CN(C)C(=O)Cn1cnc2c1c(=O)n(C)c(=O)n2C` [Compound 311] and `CN(CCCNC(=O)Cn1cnc2c1c(=O)n(C)c(=O)n2C)c1ccccc1` [Compound 322] cannot be ordered by IC50: greater than 10 µM for the first, greater than 10 µM for the second.

`CC(C(=O)Nc1cc(Cl)cc(Cl)c1)n1cnc2c1c(=O)n(C)c(=O)n2C` (stereo not shown) [Compound 314] and `CC(C(=O)Nc1ccc(F)cc1)n1cnc2c1c(=O)n(C)c(=O)n2C` (stereo not shown) [Compound 327] cannot be ordered by IC50: no more than 10 µM for the first, greater than 10 µM for the second.

`Cn1c(=O)c2c(ncn2CC(=O)NCC(c2ccc(F)cc2)N2CCOCC2)n(C)c1=O` (stereo not shown) [Compound 317] and `Cn1c(=O)c2c(ncn2CC(=O)NCC(c2ccccc2)N2CCCC2)n(C)c1=O` (stereo not shown) [Compound 321] cannot be ordered by IC50: greater than 10 µM for the first, greater than 10 µM for the second.

`COc1ccc(CNC(=O)Cn2cnc3c2c(=O)n(C)c(=O)n3C)cc1OC` [Compound 319] and `Cn1c(=O)c2c(ncn2CC(=O)NCCc2c[nH]c3ccccc23)n(C)c1=O` [Compound 335] cannot be ordered by IC50: greater than 10 µM for the first, greater than 10 µM for the second.

`Cc1cc(C)n(CCCNC(=O)Cn2cnc3c2c(=O)n(C)c(=O)n3C)n1` [Compound 323] and `Cc1nn(Cc2ccccc2)c(C)c1CNC(=O)Cn1cnc2c1c(=O)n(C)c(=O)n2C` [Compound 339] cannot be ordered by IC50: greater than 10 µM for the first, greater than 10 µM for the second.

`CC(NC(=O)Cn1cnc2c1c(=O)n(C)c(=O)n2C)c1ccc(-n2ccnc2)cc1` (stereo not shown) [Compound 325] and `Cn1c(=O)c2c(ncn2CC(=O)NC(c2ccc(F)cc2)c2cccs2)n(C)c1=O` (stereo not shown) [Compound 343] cannot be ordered by IC50: no less than 20 µM for the first, greater than 10 µM for the second.

`CC(C(=O)Nc1ccc2c(c1)OCO2)n1cnc2c1c(=O)n(C)c(=O)n2C` (stereo not shown) [Compound 331] and `Cn1c(=O)c2c(ncn2CC(=O)Nc2ncc(Cl)cc2Cl)n(C)c1=O` [Compound 341] cannot be ordered by IC50: greater than 10 µM for the first, greater than 10 µM for the second.

`Cn1c(=O)c2c(ncn2CC(=O)NCc2ccccc2CN2CCOCC2)n(C)c1=O` [Compound 337] and `CN(Cc1ccccc1N1CCOCC1)C(=O)Cn1cnc2c1c(=O)n(C)c(=O)n2C` [Compound 342] cannot be ordered by IC50: greater than 10 µM for the first, greater than 10 µM for the second.

Compound `Cn1c(=O)c2c(ncn2CC(=O)Nc2ccnn2C2CCCC2)n(C)c1=O` [Compound 340] has an IC50 greater than 10 µM.

— patent US7671061B2, “Methods and compositions for treating pain” (Hydra Biosciences, Inc., priority 2005, dated 2010)
